In ChEMBL document CHEMBL1140295, “Synthesis and monoamine transporter binding properties of 2,3-diaryltropanes” (J Med Chem, 2005):
pIC50, pKi: −log10 of the molar value.

What was measured:
[1] = target: Sodium-dependent dopamine transporter (Homo sapiens, UniProt Q01959); assay: Displacement of [3H]WIN-35428 from DAT
[2] = target: Sodium-dependent noradrenaline transporter (Homo sapiens, UniProt P23975); assay: Displacement of [3H]nisoxetine from NET
[3] = target: Sodium-dependent serotonin transporter (Homo sapiens, UniProt P31645); assay: Displacement of [3H]paroxetine from 5HTT
Homo sapiens [4] = species on record: Homo sapiens; assay: Selectivity for DAT over NET
Homo sapiens [5] = species on record: Homo sapiens; assay: Selectivity for DAT over 5HTT

Chain of Sodium-dependent noradrenaline transporter (P23975 whole entry): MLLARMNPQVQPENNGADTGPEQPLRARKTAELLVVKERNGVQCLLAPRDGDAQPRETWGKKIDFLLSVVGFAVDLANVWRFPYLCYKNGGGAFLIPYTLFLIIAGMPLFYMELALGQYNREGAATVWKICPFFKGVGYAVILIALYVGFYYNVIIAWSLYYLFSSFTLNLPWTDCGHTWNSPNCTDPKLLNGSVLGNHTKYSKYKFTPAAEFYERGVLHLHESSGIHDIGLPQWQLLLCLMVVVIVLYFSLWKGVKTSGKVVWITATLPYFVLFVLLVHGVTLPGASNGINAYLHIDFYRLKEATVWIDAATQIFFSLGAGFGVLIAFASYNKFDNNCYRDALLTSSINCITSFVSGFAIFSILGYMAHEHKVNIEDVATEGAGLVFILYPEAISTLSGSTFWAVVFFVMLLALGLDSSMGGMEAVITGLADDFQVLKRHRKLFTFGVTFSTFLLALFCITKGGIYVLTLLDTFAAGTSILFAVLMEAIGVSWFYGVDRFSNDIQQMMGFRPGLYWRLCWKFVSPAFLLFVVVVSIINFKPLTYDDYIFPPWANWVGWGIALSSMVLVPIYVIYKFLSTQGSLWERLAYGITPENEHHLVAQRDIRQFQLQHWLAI
Chain of Sodium-dependent serotonin transporter (P31645 whole entry): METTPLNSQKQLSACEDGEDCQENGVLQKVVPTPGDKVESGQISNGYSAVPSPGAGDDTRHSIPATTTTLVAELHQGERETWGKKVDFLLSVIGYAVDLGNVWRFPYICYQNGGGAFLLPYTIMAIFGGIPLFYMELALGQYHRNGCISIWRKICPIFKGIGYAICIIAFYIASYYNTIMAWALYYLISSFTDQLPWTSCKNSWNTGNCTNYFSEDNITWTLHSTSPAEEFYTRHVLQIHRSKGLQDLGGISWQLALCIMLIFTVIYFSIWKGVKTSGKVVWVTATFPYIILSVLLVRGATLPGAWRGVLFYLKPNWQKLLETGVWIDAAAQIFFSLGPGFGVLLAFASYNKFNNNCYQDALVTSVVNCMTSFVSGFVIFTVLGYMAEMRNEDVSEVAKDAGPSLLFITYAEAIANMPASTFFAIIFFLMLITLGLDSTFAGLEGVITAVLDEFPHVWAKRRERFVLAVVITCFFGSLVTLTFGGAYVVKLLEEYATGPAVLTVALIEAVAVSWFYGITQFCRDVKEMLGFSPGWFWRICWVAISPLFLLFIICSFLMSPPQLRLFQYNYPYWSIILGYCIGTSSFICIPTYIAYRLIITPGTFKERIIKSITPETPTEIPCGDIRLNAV
Chain of Sodium-dependent dopamine transporter (Q01959 whole entry): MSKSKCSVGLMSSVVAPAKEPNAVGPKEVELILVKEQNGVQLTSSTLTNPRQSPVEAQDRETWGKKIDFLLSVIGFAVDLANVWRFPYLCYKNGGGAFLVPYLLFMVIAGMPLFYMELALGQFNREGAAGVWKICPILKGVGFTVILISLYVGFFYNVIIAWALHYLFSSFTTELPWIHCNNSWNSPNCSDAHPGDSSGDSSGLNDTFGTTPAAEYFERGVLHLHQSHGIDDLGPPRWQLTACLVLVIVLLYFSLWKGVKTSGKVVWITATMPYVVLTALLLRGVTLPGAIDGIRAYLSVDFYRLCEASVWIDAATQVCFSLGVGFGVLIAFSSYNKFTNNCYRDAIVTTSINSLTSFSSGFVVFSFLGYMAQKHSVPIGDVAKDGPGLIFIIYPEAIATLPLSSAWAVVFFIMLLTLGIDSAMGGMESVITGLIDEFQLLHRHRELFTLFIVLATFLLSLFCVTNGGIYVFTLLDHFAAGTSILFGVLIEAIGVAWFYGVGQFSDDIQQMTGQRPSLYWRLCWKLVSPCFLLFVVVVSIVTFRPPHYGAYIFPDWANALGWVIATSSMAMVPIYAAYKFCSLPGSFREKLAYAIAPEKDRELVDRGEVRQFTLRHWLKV

SMILES | pIC50 [1] | pIC50 [2] | pKi [2] | pIC50 [3] | pKi [3] | Selectivity ratio (Homo sapiens [4]) | Selectivity ratio (Homo sapiens [5])
COc1ccc([C@@H]2C3CCC(C[C@@H]2c2ccc(C)cc2)N3C)cc1OC (some centres not stated) | 7.63 | 5.00 | 5.22 | 4.86 | 5.90 |  | 
Cc1ccc([C@H]2CC3CCC([C@H]2c2ccc(F)cc2)N3C)cc1 (some centres not stated) | 9.05 | 6.88 | 7.21 | 7.00 | 7.60 |  | 
COC(=O)[C@@H]1C2CC[C@H](C[C@@H]1c1ccc(C)cc1)N2C | 7.63 | 5.41 | 5.71 |  |  |  | 
COc1ccc([C@@H]2C3CCC(C[C@@H]2c2ccc(C)cc2)N3C)cc1 (some centres not stated) | 8.91 | 6.55 | 6.72 | 5.78 | 6.39 |  | 
COc1ccc([C@H]2C3CCC(C[C@H]2c2ccc(C)cc2)N3C)cc1 (some centres not stated) | 6.62 |  |  | 5.82 | 6.42 |  | 
COc1ccc([C@@H]2C3CCC(C[C@H]2c2ccc(C)cc2)N3C)cc1OC (some centres not stated) | 6.01 | 4.11 | 4.34 | 4.79 | 5.83 |  | 
Cc1ccc([C@@H]2C3CCC(C[C@@H]2c2ccccc2)N3C)cc1 (some centres not stated) | 7.65 | 5.21 | 5.43 | 4.35 | 5.39 |  | 
Cc1ccc([C@H]2C3CCC(C[C@H]2c2ccccc2)N3C)cc1 (some centres not stated) | 6.27 | 5.33 | 5.55 | 4.96 | 6.00 |  | 
CN1C2CCC1[C@H](c1ccccc1)[C@H](c1ccccc1)C2 (some centres not stated) | 6.16 | 5.98 | 6.20 | 4.39 | 5.43 |  | 
Cc1ccc([C@H]2CC3CCC([C@H]2c2ccccc2)N3C)cc1 (some centres not stated) | 8.71 | 6.32 | 6.55 | 5.96 | 7.00 |  | 
Cc1ccc([C@H]2CC3CCC([C@H]2c2ccc(C)cc2)N3C)cc1 (some centres not stated) | 8.87 | 6.11 | 6.41 | 6.00 | 6.60 | 289 | 185
Cc1ccc([C@@H]2CC3CCC([C@@H]2c2ccc(C)cc2)N3C)cc1 (some centres not stated) |  | 4.89 | 5.11 | 5.00 | 6.04 |  | 
Cc1ccc([C@@H]2CC3CCC([C@@H]2c2ccccc2)N3C)cc1 (some centres not stated) | 6.37 | 5.31 | 5.53 | 4.80 | 5.82 |  | 
CN1C2CCC1[C@@H](c1ccccc1)[C@@H](c1ccccc1)C2 (some centres not stated) | 7.90 | 6.04 | 6.26 | 4.68 | 5.72 |  | 
